Source: the NIST ThermoML archive (doi:10.1016/j.jct.2010.01.016)

How the values were obtained:
[1] = Liquid; for vapor or sublimation pressure: Closed cell (Static) method; for mass density: 298.15 K, 101.33 kPa, Vibrating tube method
[2] = excess molar enthalpy (molar enthalpy of mixing); xn = mol fraction of the nth substance listed; conditions: 303.15 K, 101 kPa, Liquid, Calvet calorimetry

CCN(CC)CCCN [N,N-diethylpropane-1,3-diamine]
[1]
Conditions | vapor or sublimation pressure [kPa]
273.15 K | 0.031
283.15 K | 0.073
293.15 K | 0.155
303.15 K | 0.31
313.15 K | 0.586
323.15 K | 1.053
333.15 K | 1.809
343.15 K | 2.987
353.15 K | 4.759
363.15 K | 7.346

Conditions | mass density [kg/m3]
[1] | 821.363

CCN(CC)CCCN [N,N-diethylpropane-1,3-diamine] + C1CCCCC1
[2]
Conditions | excess molar enthalpy [kcal/mol]
x1 = 0.1022 | 0.141
x1 = 0.2027 | 0.209
x1 = 0.3028 | 0.245
x1 = 0.3197 | 0.247
x1 = 0.3519 | 0.251
x1 = 0.3953 | 0.255
x1 = 0.407 | 0.257
x1 = 0.4449 | 0.257
x1 = 0.4943 | 0.254
x1 = 0.5061 | 0.255
x1 = 0.5307 | 0.248
x1 = 0.5351 | 0.248
x1 = 0.5595 | 0.243
x1 = 0.5741 | 0.239
x1 = 0.6073 | 0.228
x1 = 0.6523 | 0.21
x1 = 0.7017 | 0.187
x1 = 0.7997 | 0.131
x1 = 0.8696 | 0.0837

C1CCCCC1 [cyclohexane]
[1]
Conditions | vapor or sublimation pressure [kPa]
273.15 K | 3.726
283.15 K | 6.352
293.15 K | 10.36
303.15 K | 16.26
313.15 K | 24.65
323.15 K | 36.24
333.15 K | 51.85
343.15 K | 72.4
353.15 K | 98.87
363.15 K | 132.35

Conditions | mass density [kg/m3]
[1] | 774.1
